Experimental data as given in US8026271B2, “Formulations of indol-3-yl-2-oxoacetamide compounds” (National Health Research Institutes, priority 2008, dated 2011).
≈ marks a conversion by molar mass, not a printed value. Like-named read-outs stand apart in the source and are kept apart here.

Tests used:
[1] = Solubility of BPR0C261 in different carriers or mixed carriers; assay type: physicochemical; conditions: room temperature
Description: The solubility of BPR0C261 in different drug carriers or mixed carriers was evaluated. The solubility is defined as the maximum amount of a compound dissolved in a carrier or mixed carrier at room temperature.

[2] = Oral bioavailability of BPR0C261 (po vs IV PK profiles, plasma by HPLC-Tandem Mass spectrometry); assay type: in vivo; conditions: mouse, 2 mg/kg, po by gavage, read-out: Oral bioavailability (F %)
Description: The oral bioavailability of BPR0C261 was assessed by comparing the pharmacokinetic (“PK”) profiles obtained from orally administered (“po”) BPR0C261 in various oral formulation described herein with the PK profile obtained from intravenously administered (“IV”) BPR0C261.
An intravenous formulation of BPR0C261 (carriers: 5% DMSO, 25% Cremophor EL, and 70% water, v/v/v) was administered intravenously by a bolus injection to a group of three mice each via the tail vein, in a single dose of 2 mg/Kg body weight. A blood sample (0.15 mL) was drawn at different points (pre-dose, 2 min, 5 min, 15 min, 30 min. 1 hr, 2 hr, 4 hr, 6 hr, 8 hr, and 24 hr after dosing) from each animal via the cardiac puncture and stored in ice (0-5° C.). […]
Plasma was separated from the blood sample by centrifugation at 15,000 g for 15 min at 4° C. […] All plasma samples were analyzed for the BPR0C261 concentrations by HPLC-Tandem Mass spectrometry.
BPR0C261 plasma concentration data were used to obtain the PK profile for the IV or po administration, i.e., a plasma-concentration vs. time curve. The area under the curve (“AUC”) was then calculated. Oral bioavailability (F %) was determined by comparing the dose-normalized area under the curve for the oral formulation (“AUCpo/dosepo”) with that for the intravenous formulation (“AUCIV/doseIV”), i.e., F %=[AUCpo/dosepo]/[AUCIV/doseIV].

## Cc1cc(Cn2cc(C(=O)C(=O)Nc3cc(C)ns3)c3ccccc32)on1 [BPR0C261, N-(3-methylisothiazol-5-yl)-2-[1-(3-methylisoxazol-5-ylmethyl)-1H-indol-3-yl]-2-oxoacetamide]
[1]; aqueous with cosolvent or surfactant or cyclodextrin, carrier 3: DMSO (20%), Tween 80 (10%), and DDW (70%)
  solubility: < 5 mg/mL
[1]; aqueous with cosolvent or surfactant or cyclodextrin, carrier 13: DMSO (5%), Cremophor EL (25%), and DDW (70%)
  solubility: < 5 mg/mL
[1]; aqueous with cosolvent or surfactant or cyclodextrin, carrier 14: Methylcellulose (1%), Tween 80 (2%), PEG 400 (10%), and DDW (87%)
  solubility: < 1 mg/mL
[1]; carrier 1: Double distilled water (DDW)
  solubility: ~0.00012 mg/mL (≈ 0.000315 mM)
[1]; organic solvent or mixture, carrier 2: DMSO
  solubility: ~5 mg/mL (≈ 13.1 mM)
[1]; organic solvent or mixture, carrier 4: Ethanol (3%), Glycerol (2%), PEG 400 (70%), PG (20%), and Transcutol (5%)
  solubility: 10 to 30 mg/mL (≈ 26.3 to 78.9 mM)
[1]; organic solvent or mixture, carrier 5: Glycerol (5%) and PEG 400 (95%)
  solubility: 10 to 30 mg/mL (≈ 26.3 to 78.9 mM)
[1]; organic solvent or mixture, carrier 6: TPGS (20%) and PEG 400 (80%)
  solubility: 10 to 30 mg/mL (≈ 26.3 to 78.9 mM)
[1]; organic solvent or mixture, carrier 7: Transcutol (10%) and PEG 400 (90%)
  solubility: 10 to 30 mg/mL (≈ 26.3 to 78.9 mM)
[1]; organic solvent or mixture, carrier 8: DMSO (10%), PEG 400 (80%), and propylene glycol (10%)
  solubility: 10 to 30 mg/mL (≈ 26.3 to 78.9 mM)
[1]; organic solvent or mixture, carrier 9: Transcutol (10%), Cremophor EL (20%), and PEG 400 (70%)
  solubility: 10 to 30 mg/mL (≈ 26.3 to 78.9 mM)
[1]; organic solvent or mixture, carrier 10: TPGS (20%), Transcutol (20%), and PEG 400 (60%)
  solubility: ~50 mg/mL (≈ 131 mM)
[1]; organic solvent or mixture, carrier 11: TPGS (40%), Transcutol (20%), and PEG 400 (40%)
  solubility: ~50 mg/mL (≈ 131 mM)
[1]; organic solvent or mixture, carrier 12: TPGS (75%) and Transcutol (25%)
  solubility: ~50 mg/mL (≈ 131 mM)
[2]; formulation containing 5% DMSO, 25% Cremophor EL, and 70% water (v/v/v), vs IV 2 mg/Kg
  bioavailability: 18%
[2]; formulations containing TPGS, Transcutol, and optionally PEG 400, vs IV 2 mg/Kg
  bioavailability: 25 to 80%
